Data on two compounds can be found in article PMC9120013, “Ribosome inhibition by C9ORF72-ALS/FTD-associated poly-PR and poly-GR proteins revealed by cryo-EM” (Nature Communications, 2022).

In assay [1] the target is translation of nanoluciferase mRNA in rabbit reticulocyte lysates. Description: Nanoluciferase mRNA translation in rabbit reticulocyte lysate, inhibitor preincubated 5 min before mRNA. It counts as biochemical. The following applies: read-out: IC50 of translation inhibition. An excerpt: Rabbit reticulocyte lysates (RRL, Promega) were used to investigate the inhibition of translation by DPR proteins. We independently monitored translation of two mRNAs encoding non-homologous proteins of different lengths: nanoluciferase[71] and firefly luciferase. To measure the IC50s of the translational inhibitors cycloheximide (Akros Organics), harringtonine (AbCam), GDPCP (Jena Biosciences), PR20 and GR20, we monitored the translation of nanoluciferase mRNA in nuclease-treated RRL (Promega). […] Next, 10 ng/μl (final concentration) 6xhis-Nanoluciferase mRNA flanked with the 5'- and 3'-UTR from rabbit beta-globin[48] was added and the luminescence reactions were continuously measured by an Infinite m1000 pro microplate reader (Tecan) for 15 min at 30 °C. The 1st derivative of the luminescence reactions was determined in Prism 8 (GraphPad Software, LLC) and the maximum was identified and the mean of three maximums from independent experiments for each inhibitor was taken as the rate. The rates were plotted versus inhibitors concentration, and the plots were fitted in Prism 8 (GraphPad Software, LLC) to a 3-parameter inhibition model (Y = baseline + (max-baseline)/(1 + X/IC50)) to obtain the IC50 values where the baseline was constrained to 0. This procedure was modified to separate translation initiation from translation elongation by changing the time of addition of the inhibitors to ~300 s after mRNA addition when RLUs had reached a value of ~50,000. Here, the maximum of the first derivative was taken in the 2nd or later measurement taken after inhibitor addition.
(§1) The following additional controls indicate that DPR-induced changes in fluorescence were caused by translation inhibition.

The test system of assay [2] is nanoluciferase. In words: Control: nanoluciferase enzyme activity after translation stopped by cycloheximide. Type of assay: biochemical. The note with it: 1 µM added after translation stopped by CHX; n=8. On the procedure: as §1
Supplementary Fig. 1. […]
(e) Nanoluciferase mRNA was translated in
the absence of DPRs, translation was stopped by cycloheximide (CHX), then 1 µM PR20
or GR20 were added and luminescence was monitored. n=8 independent experiments;
mean of normalized RLU ± SD. […]

For assay [3], the system named is translation in E. coli cell lysates. In words: Nanoluciferase translation in E. coli cell lysate (NEBExpress). It counts as biochemical. The following applies: n=3. How it is done:
E. coli cell lysates (NEBExpress, NEB) were used to investigate bacterial translation inhibition by GR20 and PR20. We monitored the translation of an in vitro transcribed mRNA encoding a Shine-Dalgarno sequence preceding the nanoluciferase (Promega) open reading frame. The mRNA was prepared by in vitro transcription of a PCR-template obtained by amplifying the nanoluciferase open reading frame from the plasmid described in reference with the following primers: T7 + SD-forward: […], based on the pet28a+ plasmid and reverse: […]. […] Then 1 μl of water or different concentrations (10-100 μM) of PR20 or GR20 or 200 μM erythromycin were added and the plate was incubated at 37 °C for 5 min inside of an Infinite m1000 pro microplate reader (Tecan). Next, the nanoluciferase mRNA was added to the final concentration of 20 ng/μl in a 10-μl reaction. Translation reactions were incubated at 37 °C for 20 min, luminescence of the samples was continuously measured by the microplate reader to record the time course of protein synthesis. Time progress curves, obtained in the experiments, were processed in MS Excel, and the rate of change of the relative light units between 100 and 200 s was measured, the mean and SEM of three experiments is reported in column graph in Supplementary Fig. 2a.

In assay [4] the test system is ribosomes on endogenous globin mRNAs in RRL. In words: Polysome profiling of RRL translating endogenous mRNA. It counts as biochemical, rabbit. The note with it: 4 μM PR20, 4 μM GR20, 1 mM GDPCP; 5 min. How it is done: Polysome profiles were obtained using RRL untreated with nuclease, so that it contained endogenous mRNA. 100 μl reactions containing 50% RRL (Green Hectare) 30 μM hemin (Sigma), 75 mM KCl, 0.5 mM MgCl2, 1 mM ATP, 0.2 mM GTP, 2.1 mg/ml creatine phosphate, 30 μM of L-amino acid mix, 15 mg/ml yeast tRNA, 6 mM BME and, when appropriate, translation inhibitors (4 μM PR20, 4 μM GR20, cycloheximide, 40 μM harringtonine, or 1 mM GDPCP with 1 mM MgCl2) were assembled on ice. To start translation, the reactions were warmed in a heat block at either 30 °C or 37 °C as noted. After 5 min, reactions were terminated by addition of 100 μl of ice-cold Stop Buffer (50 mM Hepes-KOH pH 7.4, 150 mM KOAc, 10 mM Mg(OAc)2, and 200 μg/ml cycloheximide). The stopped reactions were applied to 10–50% sucrose gradients in Gradient Buffer (50 mM Hepes-KOH pH 7.4, 150 mM KOAc, 10 mM Mg(OAc)2, 2 mM DTT, and 100 μg/ml cycloheximide) and spun in an SW-41 rotor (Beckman Coulter) at 197,568xg (avg) for 2 h at 4 °C. Gradients were pumped on a Gradient Station (BioComp Instruments) at a pump rate of 0.29 mm/min and the absorbance at 254 nm was measured by an Econo UV monitor (Biorad) zeroed with 10% sucrose-gradient buffer. The traces were output as CSV files and imported into GraphPad Prism, where the 80S peaks were aligned. Controls were highly reproducible day-to-day. Each experimental condition is shown compared to concurrent, uninhibited control.

Where [5] appears, read: 50% RRL, 5-min preincubation at 30 °C before nanoluciferase mRNA, maximal rate vs concentration, n = 3, mean ± SEM.

Read-outs that look alike come from different tables or passages of the source. Ends that are not written are not given here.

As for `N=C(N)NCCC[C@H](NC(=O)CNC(=O)[C@H](CCCNC(=N)N)NC(=O)CNC(=O)[C@H](CCCNC(=N)N)NC(=O)CNC(=O)[C@H](CCCNC(=N)N)NC(=O)CNC(=O)[C@H](CCCNC(=N)N)NC(=O)CNC(=O)[C@H](CCCNC(=N)N)NC(=O)CNC(=O)[C@H](CCCNC(=N)N)NC(=O)CNC(=O)[C@H](CCCNC(=N)N)NC(=O)CNC(=O)[C@H](CCCNC(=N)N)NC(=O)CNC(=O)[C@H](CCCNC(=N)N)NC(=O)CNC(=O)[C@H](CCCNC(=N)N)NC(=O)CNC(=O)[C@H](CCCNC(=N)N)NC(=O)CNC(=O)[C@H](CCCNC(=N)N)NC(=O)CNC(=O)[C@H](CCCNC(=N)N)NC(=O)CNC(=O)[C@H](CCCNC(=N)N)NC(=O)CNC(=O)[C@H](CCCNC(=N)N)NC(=O)CNC(=O)[C@H](CCCNC(=N)N)NC(=O)CNC(=O)[C@H](CCCNC(=N)N)NC(=O)CNC(=O)[C@H](CCCNC(=N)N)NC(=O)CNC(=O)[C@H](CCCNC(=N)N)NC(=O)CN)C(=O)O` [GR20], the values for the concentration for half-maximal inhibition (IC50) in assay [1] (33% RRL) and in assay [1] (setting [5]) were 425 nM and 640 nM, respectively. Further, the “effect on nanoluciferase enzyme activity” value in assay [2] is given as “do not affect enzyme activity”. The “concentration needed to inhibit translation in E. coli lysate” value in assay [3] is reported as more than 10 µM. The “polysome profile, half-mer peaks” value in assay [4] is given as “appearance of half-mer peaks”.
The corresponding values for “PRPRPRPRPRPRPRPRPRPRPRPRPRPRPRPRPRPRPRPR [PR20]” are 325 nM, 840 nM, “do not affect enzyme activity”, not below 5 µM and “appearance of half-mer peaks”.
